In patent US6586427B2, “Treatments for nervous disorders” (Pharmacia & Upjohn Company, priority 1998, dated 2003):

Tests used:
[1] = system: muscarinic cholinergic receptors; assay: interaction with muscarinic cholinergic receptors; format: binding
I-adrenerigic receptors = assay: interaction with I-adrenergic receptors; format: binding
[2] = in vivo; cited from earlier work

For CCOc1ccccc1OC(c1ccccc1)C1CNCCO1 (stereo not shown) [Reboxetine], the “interaction with muscarinic cholinergic receptors” value [1] was “without showing any appreciable interaction”, the “interaction with I-adrenerigic receptors” value (I-adrenerigic receptors) was “without showing any appreciable interaction” and the “norepinephrine uptake inhibitory activity” value (norepinephrine uptake) was “highly selective norepinephrine uptake inhibitor”. For the same molecule, the “serotonin uptake inhibitory activity” value (serotonin uptake) was “only marginal”, the “dopamine uptake inhibitory activity” value (dopamine uptake) was “no dopamine uptake inhibitory activity” and the “monoamine oxidase (MAO) inhibitory activity” value (monoamine oxidase (MAO)) was “devoid of monoamine oxidase (MAO) inhibitory activity”. The “effect in the 8-OH-DPAT hypothermia test” value [2] was “ineffective”.
